{
  "source": "patent US20090180950A1",
  "about": "“Polychromatic, diversely-sized particles for angiography” (The Trustees of Columbia University in the City of New York, priority 2006, published 2009)",
  "origin": "cited, not measured here",
  "test_system": "plasma protein",
  "details": "fluorescein",
  "data": [
    {"smiles": "O=C1OC2(c3ccc(O)cc3Oc3cc(O)ccc32)c2ccccc21", "note": "[fluorescein, Sodium fluorescein]", "values": [
      {"measurement": "bound to plasma protein", "setting": "fraction bound", "result": "70-80%"},
      {"measurement": "unbound (free) fraction", "setting": "fraction not bound to plasma protein", "result": "20-30%"}
    ]}
  ]
}
